The values below come from PubChem BioAssay (NCI).

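Grown in 96-well plates, cells were treated for 48 hours with each compound at five concentrations. Insufficient inhibition: endpoint recorded as highest concentration tested. TGI: concentration producing complete growth inhibition.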 A value given as a limit tells only on which side of the number the result lay.

Among the test systems are KM12 colon; TK-10 renal; HOP-62 NSCLC; UACC-257 melanoma; SK-OV-3 ovarian; COLO 205 colon; UACC-62 melanoma; MALME-3M melanoma; LOX IMVI melanoma; SR leukemia; BT-549 breast; IGROV1 ovarian.
Common to all, as to experiment: NCI-60 cell line screen, 48 h

For `CC(C)NC1CCCCC2c3ccccc3C12O` (stereo not given), the TGI in the assay on KM12 colon, in the assay on TK-10 renal, with HOP-62 NSCLC, in the assay with UACC-257 melanoma, in the assay on SK-OV-3 ovarian and in the assay on COLO 205 colon was above 100 µM throughout. Also, the TGI with UACC-62 melanoma, in the assay on MALME-3M melanoma, in the assay on LOX IMVI melanoma and with SR leukemia was above 100 µM throughout.

For `Cc1cccc(-c2cc(=O)c3cccnc3[nH]2)c1`, the TGI was 82 µM with KM12 colon; above 100 µM in the assay on BT-549 breast; above 100 µM with HOP-62 NSCLC; above 100 µM in the assay with SK-OV-3 ovarian; 7.5 µM in the assay with COLO 205 colon; above 100 µM in the assay on UACC-62 melanoma. The TGI in the assay with LOX IMVI melanoma, in the assay with SR leukemia and with IGROV1 ovarian was above 100 µM each time.

Take `CCO/C(O)=c1/s/c(=C2/SC(=S)N(c3ccc(C)cc3)C2=O)n(-c2ccccc2)c1=N`: the TGI in the assay with KM12 colon is above 100 µM; in the assay with TK-10 renal, above 100 µM; in the assay on BT-549 breast, above 100 µM; in the assay on HOP-62 NSCLC, 81.9 µM; in the assay with UACC-257 melanoma it was above 100 µM; in the assay on SK-OV-3 ovarian, above 76 µM. The TGI in the assay on COLO 205 colon, in the assay on UACC-62 melanoma, in the assay with MALME-3M melanoma, with SR leukemia and with IGROV1 ovarian was above 100 µM in each case.

Take `CS(=O)(=O)N(CCC#N)c1ccc(/C=C2\N=C(c3ccccc3Cl)OC2=O)cc1`: the TGI in the assay on KM12 colon, with TK-10 renal, with HOP-62 NSCLC, in the assay with UACC-257 melanoma, with SK-OV-3 ovarian and in the assay on COLO 205 colon was above 100 µM each time. Besides, the TGI with UACC-62 melanoma, in the assay with MALME-3M melanoma, in the assay with LOX IMVI melanoma and in the assay on IGROV1 ovarian was above 100 µM in each case.

As for `COC(=O)C12C(=O)CC3CCC1C32C(=O)OC` (stereo not given), the TGI with KM12 colon, in the assay on TK-10 renal, in the assay with BT-549 breast, with HOP-62 NSCLC, in the assay with UACC-257 melanoma and in the assay with SK-OV-3 ovarian was above 100 µM each time. Besides, the TGI in the assay with COLO 205 colon, in the assay with UACC-62 melanoma, in the assay on MALME-3M melanoma, with LOX IMVI melanoma, in the assay with SR leukemia and with IGROV1 ovarian was above 100 µM each time.

Regarding `COc1cc2c(c3nc4ccccc4nc13)-c1ccc(SC)c(=O)cc1[C@@H](NC(C)=O)CC2`, the TGI with KM12 colon was above 100 µM; in the assay with TK-10 renal, above 100 µM; in the assay with HOP-62 NSCLC, above 100 µM; with UACC-257 melanoma it was above 100 µM; in the assay on SK-OV-3 ovarian, above 100 µM; in the assay with COLO 205 colon, 0.419 µM. For the same compound, the TGI in the assay on UACC-62 melanoma was above 100 µM; in the assay with MALME-3M melanoma it was 0.0861 µM; in the assay on LOX IMVI melanoma, above 100 µM; in the assay on SR leukemia, above 100 µM; in the assay on IGROV1 ovarian it was 0.528 µM.

For the compound `O=C(CN1CCCCC1)c1ccc2[nH]c(=O)oc2c1`, the TGI in the assay with KM12 colon, in the assay on TK-10 renal, in the assay with BT-549 breast, in the assay with HOP-62 NSCLC, with UACC-257 melanoma and in the assay on SK-OV-3 ovarian was above 100 µM each time. Besides, the TGI in the assay on COLO 205 colon, with UACC-62 melanoma, in the assay on MALME-3M melanoma, in the assay on LOX IMVI melanoma, with SR leukemia and in the assay with IGROV1 ovarian was above 100 µM throughout.

Regarding `CN(C)c1ccc(-c2c(C#N)c(-c3ccccc3)n(NS(=O)(=O)c3ccccc3)c(=O)c2C#N)cc1`, the TGI in the assay with KM12 colon, in the assay on TK-10 renal, in the assay on BT-549 breast, with HOP-62 NSCLC, in the assay with UACC-257 melanoma and with SK-OV-3 ovarian was above 100 µM each time. The TGI with COLO 205 colon, in the assay with UACC-62 melanoma, with MALME-3M melanoma, in the assay with LOX IMVI melanoma and with IGROV1 ovarian was above 100 µM each time.

Take `Cc1c2ccccc2c(=O)n2c(-c3ccccn3)cccc12`: the TGI in the assay on KM12 colon, in the assay on TK-10 renal, in the assay with HOP-62 NSCLC, with UACC-257 melanoma, in the assay with SK-OV-3 ovarian and in the assay with COLO 205 colon was above 100 µM each time. For the same compound, the TGI with UACC-62 melanoma, with MALME-3M melanoma, in the assay with LOX IMVI melanoma, in the assay on SR leukemia and with IGROV1 ovarian was above 100 µM throughout.

Consider `[N-]=[N+]=NC1C(Cl)C(=O)NC(=O)N1[C@H]1C[C@H](O)[C@@H](CO)O1` (stereo not given in full), for which the TGI with KM12 colon, in the assay with TK-10 renal, in the assay on HOP-62 NSCLC, with UACC-257 melanoma, in the assay on SK-OV-3 ovarian and with COLO 205 colon was above 100 µM each time. For the same compound, the TGI with UACC-62 melanoma, in the assay with MALME-3M melanoma, in the assay on LOX IMVI melanoma and in the assay on IGROV1 ovarian was above 100 µM throughout.

On to `OC1C2CN3CCN(C2)CC1(c1ccccc1)C3` (stereo not given), for which the TGI in the assay with KM12 colon, in the assay on TK-10 renal, in the assay with BT-549 breast, in the assay on HOP-62 NSCLC, in the assay with UACC-257 melanoma and in the assay on COLO 205 colon was above 100 µM throughout. For the same compound, the TGI with UACC-62 melanoma, with MALME-3M melanoma, with LOX IMVI melanoma, with SR leukemia and in the assay with IGROV1 ovarian was above 100 µM each time.

Take `Cc1cc2c3c(c1)S(=O)(=O)c1cc(Cl)ccc1N3CCC2`: the TGI in the assay with KM12 colon, in the assay on TK-10 renal, in the assay on BT-549 breast, in the assay on HOP-62 NSCLC, with UACC-257 melanoma and in the assay with SK-OV-3 ovarian was above 100 µM throughout. For the same compound, the TGI in the assay on COLO 205 colon, in the assay on UACC-62 melanoma, in the assay on MALME-3M melanoma, in the assay with LOX IMVI melanoma, in the assay on SR leukemia and in the assay with IGROV1 ovarian was above 100 µM in each case.
